Test results as given in US11673910B2, “Macrolides with modified desosamine sugars and uses thereof” (Zikani Therapeutics, Inc., priority 2017, dated 2023).
Converted amounts (≈) assume the structure as drawn.

Experiments:
Format in all cases: cell-based
E. coli strain MP-4 = test: Broth dilution MIC determination (CLSI) against E. coli strain MP-4; conditions: Escherichia coli, MP4
Experimental: (§1) Minimum inhibitory concentrations (MICs) for macrolides described herein were determined for E. coli strain MP-4, K. pneumoniae strain MP-548, P. aeruginosa strain MP-3, A. baumannii strain MP-15, and S. aureus strain MP-12 using similar test procedures as published in US Pat. Pub. No. 2017/0305953. MIC data is represented as “+++” for values less than or equal to 4 mg/L, “++” for values of greater than or equal to 8 mg/L and less than 32 mg/L, and “+” for values of 32 mg/L or greater. ND indicates no data for a particular compound. CLSI standard procedures for broth dilution MIC determination were used.

[1] = system: K. pneumoniae strain MP-548; test: Broth dilution MIC determination (CLSI) against K. pneumoniae strain MP-548; conditions: Klebsiella pneumoniae, MP548
Experimental: as §1

[2] = system: P. aeruginosa strain MP-3; test: Broth dilution MIC determination (CLSI) against P. aeruginosa strain MP-3; conditions: Pseudomonas aeruginosa, MP3
Experimental: as §1

[3] = system: A. baumannii strain MP-15; test: Broth dilution MIC determination (CLSI) against A. baumannii strain MP-15; conditions: Acinetobacter baumannii, MP15
Experimental: as §1

S. aureus strain MP-12 = test: Broth dilution MIC determination (CLSI) against S. aureus strain MP-12; conditions: Staphylococcus aureus, MP12, strain MP-12
Experimental: as §1

SMILES	MIC (E. coli strain MP-4)	MIC [1]	MIC [2]	MIC [3]	MIC (S. aureus strain MP-12)
CO[C@]1(C)C[C@@H](C)CN[C@H](C)[C@H]2NC(=O)O[C@]2(C)[C@@H](C)OC(=O)C(C)C(=O)[C@H](C)[C@H]1OC1OC(CN2CCCCC2)CC(N(C)C)C1O (stereo partly shown) [Compound 149, 3-Descladinosyl-3-oxo-6-O-methyl-N9a-desmethyl-11,12-dideoxy-12,11-(oxycarbonylimino)-6′-piperidinyl-13-methyl Azithromycin]	≤ 4 µg/mL	≥ 32 µg/mL	≥ 32 µg/mL	≥ 32 µg/mL	≥ 32 µg/mL
CC[C@H]1OC(=O)C(C)C(=O)[C@H](C)[C@@H](OC2OC(CN3CC(F)C3)CC(N(C)C)C2O)[C@](C)(OC)C[C@@H](C)CN[C@H](C)[C@H]2NC(=O)O[C@@]21C (stereo partly shown) [Compound 143, 3-Descladinosyl-3-oxo-6-O-methyl-N9a-desmethyl-11,12-dideoxy-12,11-(oxycarbonylimino)-6′-(3″-fluoroazetidin-1″-yl) Azithromycin]	≤ 4 µg/mL	8 to 32 µg/mL (≈ 11.6 to 46.6 µM)	≥ 32 µg/mL	≥ 32 µg/mL	8 to 32 µg/mL (≈ 11.6 to 46.6 µM)
CC[C@H]1OC(=O)C(C)C(=O)[C@H](C)[C@@H](O[C@@H]2O[C@H](CNC3CCC3)CC(N(C)C)[C@H]2O)[C@](C)(OC)C[C@@H](C)CN(C)[C@H](C)[C@H]2NC(=O)O[C@@]21C (stereo partly shown) [Compound 163, 3-Descladinosyl-3-oxo-6-O-methyl-11,12-dideoxy-12,11-(oxycarbonylimino)-6′-cyclobutylamino Azithromycin]	≤ 4 µg/mL	≤ 4 µg/mL	≥ 32 µg/mL	≥ 32 µg/mL	≥ 32 µg/mL
CC[C@H]1OC(=O)C(C)C(=O)[C@H](C)[C@@H](OC2OC(CN(C)C3CC3)CC(N(C)C)C2O)[C@](C)(OC)C[C@@H](C)CN[C@H](C)[C@H]2NC(=O)O[C@@]21C (stereo partly shown) [Compound 129, 3-Descladinosyl-3-oxo-6-O-methyl-N9a-desmethyl-11,12-dideoxy-12,11-(oxycarbonylimino)-6′-(N-methylcyclopropylamino) Azithromycin]	≤ 4 µg/mL	8 to 32 µg/mL (≈ 11.7 to 46.9 µM)	≥ 32 µg/mL	8 to 32 µg/mL (≈ 11.7 to 46.9 µM)	8 to 32 µg/mL (≈ 11.7 to 46.9 µM)
CC[C@H]1OC(=O)C(C)(C)C(=O)[C@H](C)[C@@H](O[C@@H]2O[C@H](CNC3CC3)CC(N(C)C)[C@H]2O)[C@](C)(OC)C[C@@H](C)CN(C)[C@H](C)[C@H]2NC(=O)O[C@@]21C (stereo partly shown) [Compound 190, 2-Methyl-3-descladinosyl-3-oxo-6-O-methyl-N9a-desmethyl-11,12-dideoxy-12,11-(oxycarbonylimino)-6′-cylcopropylamino Azithromycin]	≥ 32 µg/mL	≥ 32 µg/mL	≥ 32 µg/mL	≥ 32 µg/mL	≥ 32 µg/mL
CO[C@]1(C)C[C@@H](C)CN[C@H](C)[C@H]2NC(=O)O[C@]2(C)[C@@H](C)OC(=O)C(C)C(=O)[C@H](C)[C@H]1OC1OC(CN(C)C2CCC2)CC(N(C)C)C1O (stereo partly shown) [Compound 155, 3-Descladinosyl-3-oxo-6-O-methyl-N9a-desmethyl-11,12-dideoxy-12,11-(oxycarbonylimino)-6′-methylcyclobutylamino-13-methyl Azithromycin]	≤ 4 µg/mL	8 to 32 µg/mL (≈ 11.7 to 46.9 µM)	≥ 32 µg/mL	8 to 32 µg/mL (≈ 11.7 to 46.9 µM)	≥ 32 µg/mL
CO[C@]1(C)C[C@@H](C)CN[C@H](C)[C@H]2NC(=O)O[C@]2(C)[C@@H](C)OC(=O)C(C)C(=O)[C@H](C)[C@H]1OC1OC(CNC2CCC2)CC(N(C)C)C1O (stereo partly shown) [Compound 147, 3-Descladinosyl-3-oxo-6-O-methyl-N9a-desmethyl-11,12-dideoxy-12,11-(oxycarbonylimino)-6′-cyclobutylamino-13-methyl Azithromycin]	8 to 32 µg/mL (≈ 12 to 47.8 µM)	≥ 32 µg/mL	≥ 32 µg/mL	≥ 32 µg/mL	≥ 32 µg/mL
CC[C@H]1OC(=O)[C@@]2(C)CCOC(C)(C[C@@H](C)CN(C)[C@H](C)[C@H]3NC(=O)O[C@@]31C)[C@H](O[C@@H]1OC(CNC(C)C)CC(N(C)C)C1O)[C@@H](C)C2=O (stereo partly shown) [Compound 214]	≤ 4 µg/mL	≤ 4 µg/mL	≥ 32 µg/mL	≥ 32 µg/mL	≤ 4 µg/mL
CC[C@H]1OC(=O)[C@@](C)(F)C(=O)[C@H](C)[C@@H](O[C@@H]2OC(COC/C=C/c3cnc4ccccc4c3)CC(N(C)C)C2O)[C@](C)(OC)C[C@@H](C)C(=O)[C@H](C)[C@H]2NC(=O)O[C@@]21C (stereo partly shown) [Compound 104]	≥ 32 µg/mL	≥ 32 µg/mL	≥ 32 µg/mL	8 to 32 µg/mL (≈ 9.83 to 39.3 µM)	≤ 4 µg/mL
CC[C@H]1OC(=O)C(C)C(=O)[C@H](C)[C@@H](OC2OC(CN3CCC3)CC(N(C)C)C2O)[C@](C)(OC)C[C@@H](C)CN[C@H](C)[C@H]2NC(=O)O[C@@]21C (stereo partly shown) [Compound 121, 3-Descladinosyl-3-oxo-6-O-methyl-N9a-desmethyl-11,12-dideoxy-12,11-(oxycarbonylimino)-6′-(1-azetininyl) Azithromycin]	8 to 32 µg/mL (≈ 12 to 47.8 µM)	≥ 32 µg/mL	≥ 32 µg/mL	≥ 32 µg/mL	≥ 32 µg/mL
CC[C@H]1OC(=O)C(C)C(=O)[C@H](C)[C@@H](OC2OC(CN3CCCCC3)CC(N(C)C)C2O)[C@](C)(OC)C[C@@H](C)CN[C@H](C)[C@H]2NC(=O)O[C@@]21C (stereo partly shown) [Compound 123, 3-Desdadinosyl-3-oxo-6-O-methyl-N9a-desmethyl-11,12-dideoxy-12,11-(oxycarbonylimino)-6′-(1-piperidinyl) Azithromycin]	≤ 4 µg/mL	8 to 32 µg/mL (≈ 11.5 to 45.9 µM)	≥ 32 µg/mL	≥ 32 µg/mL	≥ 32 µg/mL
CC[C@H]1OC(=O)C(C)C(=O)[C@H](C)[C@@H](OC2OC(CCNC3CC3)CC(N(C)C)C2O)[C@](C)(OC)C[C@@H](C)CN[C@H](C)[C@H]2NC(=O)O[C@@]21C (stereo partly shown) [Compound 187, 3-Descladinosyl-3-oxo-6-O-methyl-N9a-desmethyl-11,12-dideoxy-12,11-(oxycarbonylimino)-5′-desmethyl-5′-(2-(aminocyclopropyl)ethyl) Azithromycin]	≤ 4 µg/mL	≤ 4 µg/mL	≥ 32 µg/mL	≥ 32 µg/mL	≥ 32 µg/mL

Results, then the compound that gave them:

MIC (E. coli strain MP-4)	MIC [1]	MIC [2]	MIC [3]	MIC (S. aureus strain MP-12)	SMILES
≤ 4 µg/mL	8 to 32 µg/mL (≈ 11.3 to 45 µM)	≥ 32 µg/mL	8 to 32 µg/mL (≈ 11.3 to 45 µM)	≤ 4 µg/mL	CC[C@H]1OC(=O)C(C)C(=O)[C@H](C)[C@@H](OC2OC(CNCC(F)(F)F)CC(N(C)C)C2O)[C@](C)(OC)C[C@@H](C)CN[C@H](C)[C@H]2NC(=O)O[C@@]21C (stereo partly shown) [Compound 112, 3-Descladinosyl-3-oxo-6-O-methyl-N9a-desmethyl-11,12-dideoxy-12,11-(oxycarbonylimino)-6′-(2-trifluoroethylamino) Azithromycin]
≤ 4 µg/mL	≥ 32 µg/mL	≥ 32 µg/mL	≥ 32 µg/mL	≥ 32 µg/mL	CC[C@H]1OC(=O)C(C)C(=O)[C@H](C)[C@@H](O[C@@H]2OC(CNCc3ccc(Cl)cc3)CC(N(C)C)C2O)[C@](C)(OC)C[C@@H](C)CN[C@H](C)[C@H]2NC(=O)O[C@@]21C (stereo partly shown) [Compound 36]
≤ 4 µg/mL	≥ 32 µg/mL	≥ 32 µg/mL	≥ 32 µg/mL	≥ 32 µg/mL	CC[C@H]1OC(=O)C(C)C(=O)[C@H](C)[C@@H](O[C@@H]2OC(CNCc3ccccc3)CC(N(C)C)C2O)[C@](C)(OC)C[C@@H](C)CN[C@H](C)[C@H]2NC(=O)O[C@@]21C (stereo partly shown) [Compound 28]
≥ 32 µg/mL	≥ 32 µg/mL	≥ 32 µg/mL	≥ 32 µg/mL	≥ 32 µg/mL	CC[C@H]1OC(=O)C(C)C(=O)[C@H](C)[C@@H](O[C@@H]2O[C@H](CN)CC(N(C)C)[C@H]2O)[C@](C)(OC)C[C@@H](C)CN[C@H](C)[C@H]2NC(=O)O[C@@]21C (stereo partly shown) [Compound 174, 3-Descladinosyl-3-oxo-6-O-methyl-N9a-desmethyl-11,12-dideoxy-12,11-(oxycarbonylimino)-11-methyl-6′-amino Azithromycin]
≤ 4 µg/mL	8 to 32 µg/mL (≈ 11.5 to 46.2 µM)	≥ 32 µg/mL	≥ 32 µg/mL	8 to 32 µg/mL (≈ 11.5 to 46.2 µM)	CC[C@H]1OC(=O)C(C)C(=O)[C@H](C)[C@@H](OC2OC(CNCC(F)F)CC(N(C)C)C2O)[C@](C)(OC)C[C@@H](C)CN[C@H](C)[C@H]2NC(=O)O[C@@]21C (stereo partly shown) [Compound 136, 3-Descladinosyl-3-oxo-6-O-methyl-N9a-desmethyl-11,12-dideoxy-12,11-(oxycarbonylimino)-6′-difluoroethylamino Azithromycin]
≤ 4 µg/mL	≥ 32 µg/mL	≥ 32 µg/mL	≥ 32 µg/mL	≥ 32 µg/mL	CC[C@H]1OC(=O)C(C)C(=O)[C@H](C)[C@@H](O[C@@H]2OC(CN[C@H](C)c3ccc(F)cc3)CC(N(C)C)C2O)[C@](C)(OC)C[C@@H](C)CN[C@H](C)[C@H]2NC(=O)O[C@@]21C (stereo partly shown) [Compound 33]
≥ 32 µg/mL	≥ 32 µg/mL	≥ 32 µg/mL	≥ 32 µg/mL	≥ 32 µg/mL	CC[C@H]1OC(=O)C(C)C(=O)[C@H](C)[C@@H](O[C@@H]2OC(CNCc3nccn3C)CC(N(C)C)C2O)[C@](C)(OC)C[C@@H](C)CN[C@H](C)[C@H]2NC(=O)O[C@@]21C (stereo partly shown) [Compound 25]
≤ 4 µg/mL	8 to 32 µg/mL (≈ 11.1 to 44.3 µM)	≥ 32 µg/mL	≥ 32 µg/mL	8 to 32 µg/mL (≈ 11.1 to 44.3 µM)	CC[C@H]1OC(=O)C(C)C(=O)[C@H](C)[C@@H](O[C@@H]2OC(CNc3ccccc3F)CC(N(C)C)C2O)[C@](C)(OC)C[C@@H](C)CN[C@H](C)[C@H]2NC(=O)O[C@@]21C (stereo partly shown) [Compound 47]
